We go through one compound from patent US20240368164A1, “PURINE NUCLEOSIDES, THEIR INTERMEDIATES, AND METHODS OF PREPARATION THEREOF” (Astrocyle Pharmaceuticals, Inc., priority 2021, published 2024).

One data set has as its target T1, Human A3R (Homo sapiens, UniProt P0DMS8).
T1 construct: expressed in transfected cells
T1 sequence (P0DMS8 1-318): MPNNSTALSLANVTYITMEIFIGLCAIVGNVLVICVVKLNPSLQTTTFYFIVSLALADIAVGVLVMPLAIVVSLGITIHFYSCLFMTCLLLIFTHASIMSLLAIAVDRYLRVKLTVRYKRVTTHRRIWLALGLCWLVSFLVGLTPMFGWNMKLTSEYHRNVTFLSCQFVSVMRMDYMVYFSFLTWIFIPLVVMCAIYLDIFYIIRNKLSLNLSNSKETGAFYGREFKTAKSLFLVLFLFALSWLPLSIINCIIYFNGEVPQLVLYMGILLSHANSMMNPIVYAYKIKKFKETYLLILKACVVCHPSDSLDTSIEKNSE
The data set can be described thus: Radioligand binding at human A3 adenosine receptor ([125I]I-AB-MECA, CHO cell membranes). Conditions: n = 1; read-out: Affinity (nM) at Human A3R. How it is done: [3H]R—N^6-Phenylisopropyladenosine ([3H]R-PIA, 63 Ci/mmol), [^3H](2-[p-(2-carboxyethyl)phenyl-ethylamino]-5′-N-ethylcarboxamido-adenosine) ([^3H]CGS21680, 40.5 Ci/mmol) and [^125I]N^6-(4-amino-3-iodobenzyl)adenosine-5′-N-methyluronamide ([^125I]I-AB-MECA, 2200 Ci/mmol) were purchased from Perkin-Elmer Life and Analytical Science (Boston, MA). Test compounds were prepared as 5 mM stock solutions in DMSO and stored frozen.
Cell Culture and Membrane Preparation—CHO cells stably expressing the recombinant hA1 and hA3ARs and HEK293 cells stably expressing the hA2AAR were cultured in Dulbecco's modified Eagle medium (DMEM) and F12 (1:1) supplemented with 10% fetal bovine serum, 100 units/mL penicillin, 100 μg/mL streptomycin, and 2 μmol/mL glutamine. In addition, 800 μg/mL geneticin was added to the A2A media, while 500 μg/mL hygromycin was added to the A1 and A3 media. After harvesting, cells were homogenized and suspended in PBS. Cells were then centrifuged at 240 g for 5 min, and the pellet was resuspended in 50 mM Tris-HCl buffer (pH 7.5) containing 10 mM MgCl2. The suspension was homogenized and was then ultra-centrifuged at 14,330 g for 30 min at 4° C. The resultant pellets were resuspended in Tris buffer, incubated with adenosine deaminase (3 units/mL) for 30 min at 37° C. The suspension was homogenized with an electric homogenizer for 10 sec, pipetted into 1 mL vials and then stored at −80° C. until the binding experiments. The protein concentration was measured using the BCA Protein Assay Kit from Pierce Biotechnology, Inc. (Rockford, IL).
Binding assays: Into each tube in the binding assay was added 50 μL of increasing concentrations of the test ligand in Tris-HCl buffer (50 mM, pH 7.5) containing 10 mM MgCl2, 50 μL of the appropriate agonist radioligand, and finally 100 μL of membrane suspension. For the A1AR (22 μg of protein/tube) the radioligand used was [^3H]R-PIA (final concentration of 3.5 nM). For the A2AAR (20 μg/tube) the radioligand used was [^3H]CGS21680 (10 nM). For the A3AR ([…]) the radioligand used was [^125I]I-AB-MECA (0.34 nM). Nonspecific binding was determined using a final concentration of 10 μM NECA diluted with the buffer. The mixtures were incubated at 25° C. for 60 min in a shaking water bath. Binding reactions were terminated by filtration through Brandel GF/B filters under a reduced pressure using a M-24 cell harvester (Brandel, Gaithersburg, MD). Filters were washed three times with 3 mL of 50 mM ice-cold Tris-HCl buffer (pH 7.5). Filters for A1 and A2AAR binding were placed in scintillation vials containing 5 mL of Hydrofluor scintillation buffer and counted using a Perkin Elmer Liquid Scintillation Analyzer (Tri-Carb 2810TR). Filters for A3AR binding were counted using a Packard Cobra II T-counter. The Ki values were determined using GraphPad Prism for all assays.
A3R binding of selected compounds. Using methods described herein, the affinity of selected compounds at the A3 receptor was measured.

Data set [1] can be described thus: Plasma protein binding (free fraction). It is filed as in vitro ADME, mouse. From the text: Example 3 of U.S. Pat. No. 9,789,131, which is incorporated herein by reference, describes assays for determining the plasma and brain free fraction of certain compounds such as I-1. Compounds described herein may be evaluated using such assays or similar variants thereof.

The subject of data set [2] is traumatic brain injury (TBI) in mice. As to the kind of experiment: Mouse traumatic brain injury (TBI) model. The data set is classed as in vivo. Here is the method: Animals and traumatic brain injury (TBI): TBI is performed with a controlled closed skull injury model as described in Talley-Watts et al. 2012 (J. Neurotrauma 30, 55-66). Following the method described therein, a pneumatic impact device is used to generate a moderate TBI leaving the skull and dura matter intact. To achieve this, C57BL/6 mice are anesthetized with isoflurane (3% induction, 1% maintenance) in 100% oxygen. A body temperature of 37° C. is maintained using a temperature-controlled heated surgical table. A small midline incision is made on the scalp using aseptic surgical techniques. A 5 mm stainless steel disc is positioned on the skull and fixed using superglue on the right parietal bone between bregma and lamda over the somatosensory cortex. The mouse is then positioned on a stage directly under the pneumatic impact tip. […] Mice are placed in a Thermo-Intensive Care Unit (Braintree Scientific model FV-1; 37° C.; 27% O2) and monitored until fully awake and moving freely. […]
Western Blot Analysis for GFAP: At selected survival times, mice are anesthetized under isoflurane and sacrificed. […] The homogenate is transferred to a 2 mL tube and centrifuged at 1000 g for 10 minutes at 4° C. and the supernatant is collected and analyzed. Protein concentration is determined by the BCA assay using a 1:50 dilution. […]

In the case of `CSc1nc(N)c2ncn([C@H]3[C@H](O)[C@H](O)[C@]4(CO)C[C@H]34)c2n1` [Compound I-1, (1R,2R,3S,4R,5S)-4-(6-Amino-2-(methylthio)-9H-purin-9-yl)-1-(hydroxymethyl)bicyclo[3.1.0]hexane-2,3-diol], the Ki at Human A3R was found to be 1490 nM. Moreover, in data set [1], the “free (unbound) fraction in plasma” value was determined as 0.74. The “efficacy in mouse TBI model” value in data set [2] was “significant efficacy”.
